For one assay, the system named is MDA-MB-231. Nature of the assay: Antiinvasive activity in human MDA-MB-231 cells assessed as inhibition of EGF-induced cell invasion after 3.5 hrs. The assay is classed as functional, cell-based. The note with it: MDA-MB-231, 3.5 h.
For the next assay, the system named is RAW264.7. Nature of the assay: Antiinflammatory activity in mouse RAW264.7 cells assessed as inhibition of LPS-induced nitric oxide production after 24 hrs by Griess assay. The note with it: RAW264.7, 24 h. The assay is classed as functional, cell-based.

Some results are limits rather than exact numbers.

As for `Cc1ccc2c(c1)CC[C@@H]1[C@](C)(CO)C[C@@H](O)C[C@@]21C`, the IC50 in the assay with MDA-MB-231 was above 10 µM; with RAW264.7 it was above 100 µM.
On to `C[C@@]1(CO)C[C@@H](O)C[C@@]2(C)[C@@H]3CC[C@](C)(O)[C@@H](CO)C=C3CC[C@H]12`, for which the IC50 in the assay with MDA-MB-231 is above 10 µM; with RAW264.7, above 100 µM.
For `CC1(C)[C@H](O)CC[C@@]2(C)[C@@H]3CC[C@@]4(C)[C@H](OC[C@@H]4O)C3=CC[C@H]12` the same measures were above 10 µM and above 100 µM.
For `C[C@@]1(CO)C[C@@H](O)C[C@@]2(C)[C@@H]3CC[C@](C)([C@@H](O)CO)C=C3C=C[C@H]12`, in that order: above 10 µM and above 100 µM.
As for `Cc1ccc2c(c1)C(=O)C[C@@H]1[C@](C)(CO)CC(=O)C[C@@]21C`, the concentration for half-maximal inhibition (IC50) in the assay with MDA-MB-231 is 4.26 to 4.29 µM; in the assay on RAW264.7, above 100 µM.
For `CC1(C)[C@H](O)CC[C@@]2(C)[C@@H]3CC[C@](C)(O)[C@@H](CO)C=C3CC[C@H]12`, in that order: above 10 µM and above 100 µM.
For `CC1(C)[C@H]2CC=C3[C@@H](CC[C@@]4(C)[C@@H]3OC[C@@H]4O)[C@]2(C)CC[C@@H]1O`, in that order: above 10 µM and above 100 µM.
For `CC1(C)[C@H](O)CC[C@@]2(C)[C@@H]3CC[C@](C)([C@@H](O)CO)C=C3CC[C@H]12` [DARUTIGENOL], in that order: above 10 µM and above 100 µM.
Turning to `C[C@]1(CO)[C@H]2CCC3=C[C@@](C)([C@@H](O)CO)CC[C@H]3[C@]2(C)C[C@H](O)[C@H]1O`, the IC50 is above 10 µM with MDA-MB-231 and above 100 µM in the assay with RAW264.7.
For `C[C@]1(CO)C[C@@H](O)C[C@@]2(C)[C@@H]3CC[C@](C)([C@@H](O)CO)C=C3CC[C@H]12`, in that order: above 10 µM and above 100 µM.
Turning to `C[C@@]1(CO)C[C@H](O)C[C@@]2(C)[C@@H]3CC[C@](C)([C@@H](O)CO)C=C3CC[C@H]12`, the 50% inhibitory concentration (IC50) in the assay on MDA-MB-231 was above 10 µM; with RAW264.7, above 100 µM.
For `C[C@@]1(CO)C[C@@H](O)C[C@@]2(C)[C@@H]3CC[C@](C)([C@H](O)CO)C=C3CC[C@H]12`, in that order: above 10 µM and above 100 µM.
For `C[C@@]1(CO)C[C@@H](O)C[C@@]2(C)[C@@H]3CC[C@](C)([C@@H](O)CO)C=C3[C@@H](O)C[C@H]12`, in that order: above 10 µM and above 100 µM.
For `CC1(C)[C@H](O)C[C@H](O)[C@@]2(C)[C@@H]3CC[C@](C)([C@@H](O)CO)C=C3CC[C@H]12`, in that order: above 10 µM and above 100 µM.
As to `CC1(C)[C@H](O)CC[C@@]2(C)[C@@H]3CC[C@](C)([C@H](O)CO)C=C3CC[C@H]12`, the values for the IC50 with MDA-MB-231 and in the assay on RAW264.7 were 3.45 µM and above 100 µM, respectively.
With `CC1(C)[C@H](O)CC[C@@]2(C)[C@@H]3CC[C@](C)([C@@H](O)CO)C=C3C=C[C@H]12`, the figures for the IC50 in the assay on MDA-MB-231 and with RAW264.7 were above 10 µM and above 100 µM, respectively.
With `C[C@@]1(CO)C[C@@H](O)C[C@@]2(C)[C@@H]3CC[C@](C)([C@@H](O)CO)C=C3[C@H](O)C[C@H]12`, the IC50 in the assay with MDA-MB-231 was 9.7 µM; with RAW264.7 it was above 100 µM.
For the compound `C[C@@]1(CO)C[C@@H](O)C[C@@]2(C)[C@@H]3CC[C@](C)([C@@H](O)CO)C=C3CC[C@H]12` [KIRENOL], the IC50 with MDA-MB-231 was above 10 µM; in the assay with RAW264.7, above 100 µM.

The IC50 is the point on the concentration scale where inhibition reaches its midpoint.

The record behind these values is ChEMBL document CHEMBL4004790, “ent-Strobane and ent-Pimarane Diterpenoids from Siegesbeckia pubescens” (J Nat Prod, 2017).
